Source: paper PMC4207403, “Docking Studies and Biological Activity of Fosinopril Analogs” (International Journal of Medicinal Chemistry, 2014)

Legend:
[1] = biological target: T1, angiotensin-I converting enzyme (ACE) (Rattus norvegicus, UniProt P47820); test: In vitro angiotensin-I converting enzyme inhibitory activity, spectrophotometric assay with rat lung extract; type: biochemical; conditions: for inhibition at 0.0002 µM: 0.2 nM; for inhibition at 0.0004 µM: 0.4 nM; for inhibition at 0.0006 µM: 0.6 nM; for inhibition at 0.0008 µM: 0.8 nM; for inhibition at 0.001 µM: 1 nM; for IC50: ACE inhibition, rat lung extract
T1 construct: The reaction was started by the addition of 40 μL rat lung extract; from tissue; host or cells: rat lung extract
T1 sequence (P47820 36-1313): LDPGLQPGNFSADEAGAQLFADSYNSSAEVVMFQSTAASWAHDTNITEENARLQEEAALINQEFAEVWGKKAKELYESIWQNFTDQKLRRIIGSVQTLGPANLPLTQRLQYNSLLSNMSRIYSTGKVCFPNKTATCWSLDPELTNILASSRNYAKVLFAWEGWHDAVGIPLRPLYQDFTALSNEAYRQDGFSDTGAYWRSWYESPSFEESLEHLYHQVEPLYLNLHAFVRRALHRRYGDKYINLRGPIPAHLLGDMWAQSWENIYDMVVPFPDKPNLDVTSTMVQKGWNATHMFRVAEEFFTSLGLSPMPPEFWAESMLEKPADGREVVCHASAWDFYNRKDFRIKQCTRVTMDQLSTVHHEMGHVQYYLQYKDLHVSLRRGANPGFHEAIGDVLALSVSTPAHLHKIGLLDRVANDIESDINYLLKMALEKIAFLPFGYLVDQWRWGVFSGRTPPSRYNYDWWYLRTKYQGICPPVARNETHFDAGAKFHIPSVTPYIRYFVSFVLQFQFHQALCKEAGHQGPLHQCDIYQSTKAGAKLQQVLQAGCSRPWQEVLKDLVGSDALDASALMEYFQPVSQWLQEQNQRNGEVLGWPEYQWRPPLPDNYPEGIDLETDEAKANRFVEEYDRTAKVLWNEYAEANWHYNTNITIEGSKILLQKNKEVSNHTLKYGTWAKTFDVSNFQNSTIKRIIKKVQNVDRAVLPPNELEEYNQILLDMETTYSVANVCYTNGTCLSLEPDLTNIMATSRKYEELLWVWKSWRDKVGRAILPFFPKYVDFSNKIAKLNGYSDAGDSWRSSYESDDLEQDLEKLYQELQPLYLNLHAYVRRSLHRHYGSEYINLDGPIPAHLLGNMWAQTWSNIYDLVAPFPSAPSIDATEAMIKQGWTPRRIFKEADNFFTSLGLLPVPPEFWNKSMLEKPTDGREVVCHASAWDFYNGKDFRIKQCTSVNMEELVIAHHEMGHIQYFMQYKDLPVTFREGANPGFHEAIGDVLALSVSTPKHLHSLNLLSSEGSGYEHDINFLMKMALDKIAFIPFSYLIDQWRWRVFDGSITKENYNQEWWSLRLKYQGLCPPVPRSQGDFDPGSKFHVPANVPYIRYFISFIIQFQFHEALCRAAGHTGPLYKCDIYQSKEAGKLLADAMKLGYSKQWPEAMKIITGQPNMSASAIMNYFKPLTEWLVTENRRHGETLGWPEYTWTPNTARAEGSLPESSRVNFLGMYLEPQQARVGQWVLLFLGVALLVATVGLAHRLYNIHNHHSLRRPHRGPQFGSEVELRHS
Method: This method is based on the cleavage of the substrate hippuryl-glycyl-glycine by ACE and subsequent reaction with trinitrobenzenesulfonic acid to form 2,4,6-trinitrophenyl-glycyl-glycine. The method relies on spectrophotometric determination of hippuric acid. It involves a colorimetric reaction of hippuric acid with benzene sulfonyl chloride.
The assay system consisted of 200 μL of substrate solution, water, and drug solution in a volume of 0.25 mL. The reaction was started by the addition of 40 μL rat lung extract. After 30 minutes of incubation at 37°C, the reaction was stopped by adding 2 mL of stop solution (1.195 g HEPES and 0.0465 g of EDTA were dissolved in 40 mL distilled water. The pH was adjusted to 9.0 with 1 mol/lit sodium hydroxide and diluted to 50 mL with distilled water). Then 0.5 mL distilled water and 1.0 mL colour reagent were added, mixed vigorously, left for 5 min, and centrifuged at 3000–4000 rpm for 10 minutes at room temperature to remove any precipitate. The corresponding enzyme inhibitors blanks were assayed in the same manner except for adding the stop solution before the lung extract. The absorbance of the yellow product of the reaction between liberated hippurate and cyanuric chloride was measured spectrophotometrically at 405 nm against distilled water as blank.Controls without drug were run simultaneously in all cases. “One inhibitory unit is the amount of inhibitor that suppressed the ACE activity by one unit.”

ACE = conditions: background statement; cited from earlier work
[2] = background statement; cited from earlier work
[3] = read-out: Percent inhibition of ACE

Compound | inhibition at 10 pM ([1]; 0.01 nM, read-out: Percent inhibition of ACE) [%] | inhibition at 20 pM ([1]; 0.02 nM, read-out: Percent inhibition of ACE) [%] | inhibition at 0.0002 µM [1, 3] [%] | inhibition at 0.0004 µM [1, 3] [%] | inhibition at 0.0006 µM [1, 3] [%] | inhibition at 0.0008 µM [1, 3] [%] | inhibition at 0.001 µM [1, 3] [%] | IC50 [1] [nM] | ACE inhibition activity, in words ([1]; compared with other analogs and Fosinopril) | inhibition at 0.0001 µM ([1]; 0.1 nM, read-out: Percent inhibition of ACE) [%] | Potency relative to other ACE inhibitors (ACE) | Bioavailability [2]
O=C(O)C1Cc2ccccc2CN1C(=O)CP(=O)(O)CCCCc1ccccc1 (stereo not shown) [Analog A2] | 44.7 ± 3.85 | 53.2 ± 5.73 | 75.1 ± 4.66 | 77.8 ± 3.21 | 81.7 ± 6.09 | 84 ± 5.11 | 84.5 ± 4.52 | 0.017 ± 0.009 | highest ACE inhibition activity |  |  | 
CCC(=O)O[C@@H](O[P@](=O)(CCCCc1ccccc1)CC(=O)N1C[C@H](C2CCCCC2)C[C@H]1C(=O)O)C(C)C [Fosinopril] |  |  | 63 ± 6.01 | 68.7 ± 3.99 | 73 ± 4.76 | 88.2 ± 5.2 | 89.1 ± 3.82 | 0.143 ± 0.012 |  | 44.1 ± 4.35 |  | 
O=C(O)[C@@H]1C[C@@H](C2CCCCC2)CN1C(=O)CP(=O)(O)CCCCc1ccccc1 [Fosinoprilat] |  |  |  |  |  |  |  |  |  |  | more potent than captopril but less potent than enalaprilat | poor bioavailability
C[C@H](N[C@@H](CCc1ccccc1)C(=O)O)C(=O)N1CCC[C@H]1C(=O)O [enalaprilat] |  |  |  |  |  |  |  |  |  |  |  | poor bioavailability
